In patent US20220380319A1 (Bial - R&D Investments, S.A., priority 2019, published 2022):
pIC50: −log10 of the molar value. Values after ≈ are worked out from the molar mass of the structure shown.

Key:
acid ceramidase = target: T1, acid ceramidase (Homo sapiens, UniProt Q13510); test: Acid ceramidase inhibition, biochemical fluorescent assay with cell lysates overexpressing acid ceramidase, substrate Rbm14-12; conditions: substrate Rbm14-12 6.3 μM
T1 construct: Cell lysates overexpressing acid ceramidase were used as the enzyme source; expressed in transfected cells
T1 sequence (Q13510 22-395): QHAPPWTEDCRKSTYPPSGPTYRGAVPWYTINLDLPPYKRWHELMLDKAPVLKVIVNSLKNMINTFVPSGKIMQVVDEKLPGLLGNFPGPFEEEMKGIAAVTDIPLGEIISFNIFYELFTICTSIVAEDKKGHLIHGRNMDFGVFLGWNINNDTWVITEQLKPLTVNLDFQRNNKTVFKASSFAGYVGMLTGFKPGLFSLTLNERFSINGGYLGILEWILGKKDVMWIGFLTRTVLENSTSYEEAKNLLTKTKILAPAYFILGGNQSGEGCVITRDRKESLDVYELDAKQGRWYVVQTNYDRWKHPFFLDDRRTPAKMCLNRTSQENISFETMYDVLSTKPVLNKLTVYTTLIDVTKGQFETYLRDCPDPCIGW
Outline: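 IC50 derived by four-parameter fitting of fluorescence (ex360 nm, em446 nm) produced after 1 hr in methanol/NaIO4/glycine stop buffer, pH 10.6. Reaction: 6.3 μM Rbm14-12, 1 hr RT, following 1 hr RT compound preincubation with 10 μg overexpressing-cell lysate protein in pH 4.5 NaAC/NaCl buffer.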

[1] = Compound solubility in water
[2] = pH 4.5, 1 hr preincubation at RT

Row | pIC50 (acid ceramidase; pH 4.5) | solubility [1] | pIC50 (acid ceramidase; [2]) | Structure (SMILES)
1 | > 6.70 | 15 µg/mL (≈ 35.9 µM) | – | O=C1CCC2CN(c3cccc4c3ncn4C(=O)NCCCc3ccccc3)CCN12 (stereo not shown) [Example 275, 4-(6-Oxohexahydropyrrolo[1,2-a]pyrazin-2(1H)-yl)-N-(3-phenylpropyl)-1H-benzo[d]imidazole-1-carboxamide]
2 | – | 30 µg/mL (≈ 75.1 µM) | 6.00 to 6.70 | CC(C)CCNC(=O)n1cnc2c(N3CCN(C4CCOCC4)CC3)cccc21 [Example 155, N-iso-Pentyl-4-(4-(tetrahydro-2H-pyran-4-yl)-piperazin-1-yl)-1H-benzo[d]imidazole-1-carboxamide]
3 | – | 13.7 µg/mL (≈ 40.4 µM) | 6.00 to 6.70 | COc1nc2ccc(-c3cncnc3)cc2n1C(=O)NCCC(C)C [Example 106, N-iso-Pentyl-2-methoxy-6-(pyrimidin-5-yl)-1H-benzo[d]imidazole-1-carboxamide]
4 | > 6.70 | 32 µg/mL (≈ 91.8 µM) | – | CN1CC(c2cccc3c2ncn3C(=O)NCCCc2ccccc2)C1 [Example 270, 4-(1-Methylazetidin-3-yl)-N-(3-phenylpropyl)-1H-benzo[d]imidazole-1-carboxamide]
5 | > 6.70 | 15 µg/mL (≈ 38.9 µM) | – | CC(=O)N1CCN(c2cccc3c2ncn3C(=O)NCCCCC(C)C)CC1 [Example 223, 4-(4-Acetylpiperazin-1-yl)-N-(5-methylhexyl)-1H-benzo[d]imidazole-1-carboxamide]
6 | – | 23 µg/mL (≈ 74.1 µM) | 6.00 to 6.70 | CCn1c(=O)n(C(=O)NCCc2ccccc2)c2ncccc21 [Example 127, 1-Ethyl-2-oxo-N-phenethyl-1H-imidazo[4,5-b]pyridine-3(2H)-carboxamide]
7 | > 6.70 | 24 µg/mL (≈ 61 µM) | – | CC(C)C#CCNC(=O)n1cnc2c(N3CCC4CN(C)CC4CC3)cccc21 (stereo not shown) [Example 312, 4-(2-Methyloctahydropyrrolo[3,4-d]azepin-6(1H)-yl)-N-(4-methylpent-2-yn-1-yl)-1H-benzo[d]imidazole-1-carboxamide]
8 | – | 11 µg/mL (≈ 28 µM) | > 6.70 | CN1CCN(c2cccc3c2ncn3C(=O)NCc2ccc3c(c2)OCO3)CC1 [Example 346, N-(Benzo[d][1,3]dioxol-5-ylmethyl)-4-(4-methylpiperazin-1-yl)-1H-benzo[d]imidazole-1-carboxamide]
9 | – | 1 µg/mL (≈ 2.41 µM) | > 6.70 | COc1nc2cc(F)c(N3CCOCC3)cc2n1C(=O)NCCOc1ccccc1 [Example 335a, 5-Fluoro-2-methoxy-6-morpholino-N-(2-phenoxyethyl)-1H-benzo[d]imidazole-1-carboxamide]
10 | – | 7.4 µg/mL (≈ 20.4 µM) | > 6.70 | CC(C)CNC(=O)n1cnc2cc(C(F)(F)F)c(-c3cncnc3)cc21 [Example 77b, N-iso-butyl-6-(pyrimidin-5-yl)-5-(trifluoromethyl)-1H-benzo[d]imidazole-1-carboxamide]
11 | > 6.70 | 0.3 µg/mL (≈ 0.703 µM) | – | COc1nc2cc(N3CCOCC3)c(F)cc2n1C(=O)NCCCCc1ccccc1 [Example 215, 6-Fluoro-2-methoxy-5-morpholino-N-(4-phenylbutyl)-1H-benzo[d]imidazole-1-carboxamide]
12 | – | 0.4 µg/mL (≈ 1.06 µM) | > 6.70 | O=C(NCCc1ccccc1)n1cnc2cc(-c3ccccn3)c(Cl)cc21 [Example 7a, 6-Chloro-N-phenethyl-5-(pyridin-2-yl)-1H-benzo[d]imidazole-1-carboxamide]
13 | – | 3 µg/mL (≈ 8.16 µM) | < 6.00 | O=C(NC1CCCCC1)n1cnc2c(N3CCN(C4CC4)CC3)cccc21 [Example 148, N-Cyclohexyl-4-(4-cyclopropylpiperazin-1-yl)-1H-benzo[d]imidazole-1-carboxamide]
14 | – | 33 µg/mL (≈ 93.9 µM) | 6.00 to 6.70 | CC(C)C#CCNC(=O)n1cnc2c(N3CC4(CN(C)C4)C3)cccc21 [Example 358, 4-(6-Methyl-2,6-diazaspiro[3.3]heptan-2-yl)-N-(4-methylpent-2-yn-1-yl)-1H-benzo[d]imidazole-1-carboxamide]
